What all share (assay): growth of human tumour cells (NCI), 48 h
Experiment [1] relates to SK-MEL-28 melanoma.
The test system of experiment [2] is MCF7 breast.
Experiment [3] concerns NCI-H23 lung.
The test system of experiment [4] is SNB-19 CNS.
The subject of experiment [5] is OVCAR-8 ovarian.
Experiment [6] concerns TK-10 renal.
Experiment [7] has as its system SN12C renal.
For experiment [8], the system named is MALME-3M melanoma.
Experiment [9] deals with NCI-H226 lung.
The subject of experiment [10] is 786-0 renal.

Experimental findings from PubChem BioAssay (NCI) are described below.

Each structure is given as a SMILES string. Several values for one entry are separate records, joined by “and”; a condition that tells them apart may be missing. Equal values may be shown once.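 Following 48 hours of exposure in 96-well plates, responses at five concentrations were used to interpolate endpoints linearly. GI50 is the concentration that inhibits growth by half. TGI denotes the concentration required for complete inhibition of growth.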 Some results are limits rather than exact numbers.

With `CC(C)Oc1cccc(N2C(CCc3c[nH]c4ccc(Br)cc34)=NS(=O)(=O)c3cnccc32)c1`, the TGI in [1], in experiment [2], in [3], in experiment [4], in [5] and in [6] was more than 100 µM in each case. In addition, the TGI in [7] is more than 100 µM; in experiment [8], more than 100 µM; in experiment [9] it was 97.8 µM; in [10], more than 100 µM.

As to `COc1cccc2c(=O)oc(-c3ccccc3C)nc12`, the TGI was more than 100 µM in [1]; more than 100 µM in experiment [2]; more than 100 µM in [3]; more than 100 µM in [5]; more than 100 µM in experiment [6]; 69.4 µM in experiment [7]. For the same compound, the TGI in experiment [8] is more than 100 µM; in experiment [9], 57.8 µM; in experiment [10], more than 100 µM.

For `COc1cc2c(cc1O)NC(=O)[C@@H]1C[C@@H](O)CN1C2=O`, the TGI in experiment [1], in experiment [2], in [3], in experiment [4], in experiment [5] and in [6] was more than 100 µM in each case. In addition, the TGI in experiment [7], in experiment [8], in [9] and in experiment [10] was more than 100 µM each time.

In the case of `COc1ccc(O[C@H](CO)C[C@@H]2COC(C)(C)O2)cc1`, the TGI in experiment [1], in [2], in [3], in experiment [4], in experiment [5] and in experiment [6] was more than 100 µM throughout. Moreover, the TGI in experiment [7], in experiment [8], in experiment [9] and in [10] was more than 100 µM in each case.

For `O=c1c2ccc(Cl)cc2oc2c(CSc3ccccc3)cccc12`, the TGI was more than 100 µM in [1]; more than 100 µM in experiment [2]; more than 87.6 µM in experiment [3]; more than 86.5 µM in experiment [4]; more than 100 µM in experiment [5]; more than 100 µM in experiment [6]. The TGI in experiment [7] was more than 100 µM; in experiment [8] it was more than 61.1 µM; in experiment [9] it was more than 100 µM; in experiment [10], more than 100 µM.

Regarding `COc1cc2c(cc1OC)C1=C(C=O)c3ccc(OC)c(OC)c3C(O)N1CC2` (configuration not stated), the TGI in experiment [1] was more than 100 µM; in [2], more than 100 µM; in experiment [3] it was 57.1 µM; in [4], more than 100 µM; in [6], 72.8 µM; in experiment [7], more than 100 µM. The results for the TGI in experiment [8], in experiment [9] and in [10] were 53.9 µM, more than 100 µM and more than 100 µM, respectively.

For `OCCN1CCN(c2nc(N3CCCC3)c3nc(Cl)c(NCc4ccccc4)nc3n2)CC1`, the TGI in experiment [1] was 9.08 µM; in experiment [2] it was 17.2 µM; in [3] it was 29.4 µM; in [4] it was 21.3 µM; in experiment [5], 23.5 µM; in experiment [6], 19.2 µM. The TGI was found to be 24.2 µM in experiment [7], 11.7 µM in experiment [8], 37.8 µM in experiment [9] and 4.23 µM in experiment [10].

`O=C(Nc1ccc(-n2cc(-c3ccncc3)c(-c3ccc(O)c(Cl)c3)n2)cc1)Nc1cc(C(F)(F)F)cc(C(F)(F)F)c1`: the GI50 is 4.48 µM in experiment [1]; 3.3 µM in [2]; 3.63 µM in [3]; 4.45 µM in [4]; 3.44 µM in [5]; 3.55 µM in experiment [6]. Moreover, the results for the GI50 in [7], in [8] and in [9] were 4.12 µM, 2.59 µM and 13.3 µM, respectively. The TGI in [1] is 16.5 µM; in [2] it was 13.2 µM; in experiment [3] it was 18.4 µM; in experiment [4] it was 16.5 µM; in [5], 11.7 µM; in experiment [6] it was 13.6 µM. Also, the TGI worked out at 16.3 µM in experiment [7], 13.9 µM in [8] and 29.4 µM in [9].

Regarding `Clc1[nH]nc2ccccc12`, the TGI in experiment [1], in experiment [2], in experiment [3], in experiment [4], in experiment [5] and in [6] was more than 100 µM each time. In addition, the TGI in experiment [7], in experiment [8], in [9] and in experiment [10] was more than 100 µM each time.

`CC(=O)O[C@H]1CC[C@@H](OC(C)=O)[C@H]2[C@H](O)[C@H](O)[C@@H]1n1c(=O)n(-c3ccccc3)c(=O)n12`: the TGI in experiment [1], in [2], in experiment [3], in [4], in [5] and in experiment [6] was more than 100 µM throughout. In addition, the TGI in [7], in experiment [8], in experiment [9] and in experiment [10] was more than 100 µM throughout.

For `NC(=O)CSc1nc2ccccc2c(=O)n1N`, the TGI in [1], in experiment [2], in [3], in [4], in [5] and in [6] was more than 100 µM each time. Further, the TGI in experiment [7], in experiment [8], in experiment [9] and in experiment [10] was more than 100 µM throughout.

For `Cc1nnc(SCc2nc(C#N)c(C#N)nc2CSc2nnc(C)s2)s1`, the TGI is more than 90.8 µM in experiment [1]; 34.3 µM in [2]; 45 µM in experiment [3]; more than 100 µM in experiment [4]; more than 100 µM in [5]; 16.3 µM in experiment [6]. Further, the TGI in experiment [7] turned out to be 38.2 µM; in experiment [8], 13 µM; in [9], 54.1 µM; in [10], 28.8 µM.

For the compound `Cc1ccc(C(=O)Nc2ccc(CP(=O)(O)O)cc2CP(=O)(O)O)cc1N`, the TGI in experiment [1], in experiment [2], in [3], in [4], in experiment [5] and in experiment [6] was more than 100 µM each time. Moreover, the TGI in experiment [7], in experiment [8], in [9] and in experiment [10] was more than 100 µM each time.

Turning to `[C-]#[O+].[Cl][Sn]([Cl])[Cl].[Cl][Sn]([Cl])[Cl].[Pt].c1cnc2c(c1)ccc1cccnc12`, the TGI in experiment [1] was 46.9 µM; in [2], 56.4 µM; in experiment [3] it was more than 100 µM; in experiment [4] it was more than 27.1 µM; in [5], more than 100 µM; in experiment [7], more than 61.2 µM. Also, the TGI was more than 100 µM in experiment [8] and more than 42.4 µM in [9].

On to `Cc1n[nH]c(=O)n1-n1cccc1`, for which the TGI in [1], in [2], in experiment [3], in experiment [4], in experiment [5] and in experiment [6] was more than 100 µM each time. Besides, the TGI in experiment [7], in experiment [8], in experiment [9] and in experiment [10] was more than 100 µM in each case.

Take `O=C(O)CCCc1ccc2c(c1)C(C(=O)O)CC2` (configuration not stated): the TGI in experiment [1], in [2], in experiment [3], in experiment [4], in experiment [5] and in experiment [6] was more than 100 µM each time. The TGI in experiment [7], in experiment [8], in experiment [9] and in [10] was more than 100 µM each time.

Turning to `CC1(C)C(=O)/C(=C/c2ccccc2)C(C)(C)C1(C)C`, the TGI in experiment [1], in experiment [2], in [3], in experiment [4], in experiment [5] and in experiment [6] was more than 100 µM throughout. Moreover, the TGI in [7], in experiment [8], in [9] and in experiment [10] was more than 100 µM throughout.

`N#Cc1cc(F)cc(Oc2ccc(S(=O)(=O)C(F)F)c3c2CC(F)(F)[C@H]3O)c1`: the GI50 in [1] was 36.1 µM; in [2], 25.7 µM; in [3], 27.6 µM; in experiment [4] it was 37.2 µM; in [5], 33.8 µM; in experiment [6], 28.4 µM. In addition, the GI50 in [7] is 28.7 µM; in [8] it was 28.5 µM; in experiment [9], 31.3 µM. In addition, the TGI is more than 100 µM in experiment [1]; more than 100 µM in experiment [2]; more than 100 µM in experiment [3]; more than 100 µM in experiment [4]; more than 100 µM in experiment [5]; 82.4 µM in experiment [6]. In addition, the TGI in experiment [7], in experiment [8] and in experiment [9] was more than 100 µM throughout.

As to `CC(=O)Oc1cc2c(cc1OCC(F)(F)F)[C@H]1CC[C@]3(C)[C@@H](OC(C)=O)CC[C@H]3[C@@H]1CC2=O`, the TGI in experiment [1] was more than 67.6 µM; in experiment [2], more than 75.6 µM; in [3], more than 68.8 µM; in [4], more than 67 µM; in experiment [5], 57 µM; in experiment [6], 46.2 µM. Besides, the TGI is 57.6 µM in experiment [7], 47.9 µM in experiment [8], more than 100 µM in [9] and more than 100 µM in [10].

Regarding `Cc1cc(-c2ccc(N=Nc3ccc4c(S(=O)(=O)O)cc(S(=O)(=O)O)c(N)c4c3O)c(C)c2)ccc1N=Nc1ccc2c(S(=O)(=O)O)cc(S(=O)(=O)O)c(N)c2c1O`, the TGI in experiment [1], in experiment [2], in experiment [3], in [4], in experiment [5] and in experiment [7] was more than 100 µM in each case. In addition, the TGI in experiment [8] and in experiment [9] was more than 100 µM each time.

In the case of `Cc1cccc2c1nc1n2C(=O)c2ccccc2-1`, the TGI in experiment [1], in experiment [2], in experiment [3], in [4], in [5] and in experiment [6] was more than 100 µM in each case. Further, the TGI in experiment [7], in experiment [8], in experiment [9] and in experiment [10] was more than 100 µM throughout.

With `COC(=O)c1c(O)ccc2c1c1c(n2Cc2ccc(OC)cc2)C(=O)c2ccccc2C1`, the TGI in [1], in experiment [2], in experiment [3], in experiment [4], in experiment [5] and in experiment [6] was more than 100 µM in each case. In addition, the TGI in [7] is 93.3 µM; in experiment [8], more than 100 µM; in experiment [9], more than 100 µM; in experiment [10] it was more than 100 µM.

As for `O=C(Nc1cccc2ccccc12)c1cc2ccccc2oc1=O`, the TGI in [1] is more than 100 µM; in [2] it was more than 100 µM; in [3], more than 100 µM; in experiment [4] it was 85.1 µM; in experiment [5], more than 100 µM; in experiment [7], more than 100 µM. The TGI in [8] is more than 100 µM; in experiment [9], 54.4 µM; in [10], 50.3 µM.

Turning to `Nc1c(C(=O)O)c2ccc([N+](=O)[O-])cc2c(=O)n1-c1nc2ccccc2s1`, the TGI in experiment [1], in experiment [2], in [3], in experiment [4], in experiment [5] and in experiment [7] was more than 100 µM throughout. Besides, the TGI in experiment [8], in experiment [9] and in experiment [10] was more than 100 µM in each case.

With `COC(=O)C(Cc1ccccc1)NC(=O)C(CNC(=O)OCc1ccccc1)C(=O)OCc1ccccc1` (configuration not stated), the GI50 in experiment [1] was > 100 µM and 20.8 µM; in experiment [8], > 100 µM and 44.4 µM. Also, the TGI is > 100 µM and 41.7 µM in experiment [1]; > 100 µM and 79.8 µM in experiment [2]; more than 100 µM in [3]; more than 100 µM in [4]; more than 100 µM in experiment [5]; more than 100 µM in [7]. Moreover, the TGI in experiment [8] and in experiment [9] was more than 100 µM in each case.

With `COc1cc(C=O)cc(C=Nc2ccc(Br)cc2)c1O`, the TGI in experiment [1], in experiment [2], in experiment [3], in experiment [4], in experiment [5] and in experiment [6] was more than 100 µM in each case. In addition, the results for the TGI in experiment [7], in [8] and in experiment [9] were 32.7 µM, 17.2 µM and 8.19 µM, respectively.
